Measured values as given in patent US20080009418A1, “Selective Inhibitors” (Alchemia LTD., priority 2004, published 2008).

Legend:
Human Melanocortin (MC4) = biological target: T1, Human Melanocortin (MC4) (Homo sapiens, UniProt P32245); assay: Radioligand binding, human melanocortin MC4 membranes, FlashPlate, [125I]-NDP-αMSH; conditions: compound at 10 μM; [125I]-NDP-αMSH
T1 construct: purchased Perkin Elmer Biosignal
How it was run: (§1)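 Cloned human receptor membranes were coated onto FlashPlate wells and incubated with radioligand and compound (added from a 0.5 mM DMSO daughter plate) for 1 hour at room temperature in the dark. Scintillation counting gave percent inhibition, with DMSO defining total and reference ligand defining non-specific binding.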

[1] = biological target: T2, Human neuropeptide Y (NPY-Y1) (Homo sapiens, UniProt P25929); assay: Radioligand binding, human neuropeptide Y NPY-Y1 membranes, FlashPlate, [125I]-PYY; conditions: compound at 10 μM; [125I]-PYY
T2 construct: purchased Perkin Elmer Biosignal
T2 sequence (P25929 1-384): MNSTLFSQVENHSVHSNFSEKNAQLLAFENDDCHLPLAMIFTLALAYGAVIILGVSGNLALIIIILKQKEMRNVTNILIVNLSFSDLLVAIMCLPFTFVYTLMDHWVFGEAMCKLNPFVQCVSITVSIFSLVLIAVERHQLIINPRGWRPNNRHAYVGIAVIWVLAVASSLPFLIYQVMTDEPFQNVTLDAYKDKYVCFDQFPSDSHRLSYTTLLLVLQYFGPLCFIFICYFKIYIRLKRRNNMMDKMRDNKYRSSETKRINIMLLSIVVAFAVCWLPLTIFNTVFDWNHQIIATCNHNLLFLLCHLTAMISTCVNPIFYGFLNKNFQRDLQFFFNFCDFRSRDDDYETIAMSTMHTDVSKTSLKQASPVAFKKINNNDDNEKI
How it was run: as §1

[2] = biological target: T3, Human melanin-concentrating hormone (MCH1) (Homo sapiens, UniProt Q99705); assay: Radioligand binding, human melanin-concentrating hormone MCH1 membranes, FlashPlate, [125I]-S36057; conditions: compound at 10 μM; [125I]-S36057
T3 construct: purchased Perkin Elmer Biosignal
How it was run: as §1

Human Melanocortin (MC3) = biological target: T4, Human Melanocortin (MC3) (Homo sapiens, UniProt P41968); assay: Radioligand binding, human melanocortin MC3 membranes, FlashPlate, [125I]-NDP-αMSH; conditions: compound at 10 μM; [125I]-NDP-αMSH
T4 construct: purchased Perkin Elmer Biosignal
How it was run: as §1

Human melanocortin (MC5) = biological target: T5, Human melanocortin (MC5) (Homo sapiens, UniProt P33032); assay: Radioligand binding, human melanocortin MC5 membranes, FlashPlate, [125I]-NDP-αMSH; conditions: compound at 10 μM; [125I]-NDP-αMSH
T5 construct: purchased Perkin Elmer Biosignal
How it was run: as §1

Mouse urotensin (mUR2) = biological target: T6, Mouse urotensin (mUR2) (Mus musculus, UniProt Q8VIH9); assay: Radioligand binding, mouse urotensin mUR2 membranes, FlashPlate, [125I]-Urotensin II; conditions: compound at 10 μM; [125I]-Urotensin II
T6 construct: purchased Perkin Elmer Biosignal
T6 sequence (Q8VIH9 1-385): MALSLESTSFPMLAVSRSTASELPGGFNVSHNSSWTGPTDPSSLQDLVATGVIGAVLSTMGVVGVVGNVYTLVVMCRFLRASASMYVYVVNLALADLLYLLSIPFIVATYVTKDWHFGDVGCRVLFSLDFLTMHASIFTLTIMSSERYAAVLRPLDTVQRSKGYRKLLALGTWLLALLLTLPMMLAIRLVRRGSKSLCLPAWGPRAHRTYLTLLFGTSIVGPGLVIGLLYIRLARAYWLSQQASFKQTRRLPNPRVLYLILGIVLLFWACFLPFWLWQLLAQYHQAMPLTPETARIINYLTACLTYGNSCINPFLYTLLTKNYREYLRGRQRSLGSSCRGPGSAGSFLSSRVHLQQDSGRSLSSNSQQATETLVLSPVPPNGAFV
How it was run: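 Cloned mouse urotensin (mUR2) receptor membranes from Perkin Elmer Biosignal were immobilized in FlashPlate microplates using a proprietary coating. Each well got 19.5 μl buffer, then 0.5 μl of DMSO, reference ligand, or compound. Adding 5 μl of [125I]-Urotensin II, diluted to 5× final concentration in binding buffer, started binding. Plates were sealed with TopSeal-A and incubated 1 hour at room temperature in the dark. Wells were counted for 30 seconds each on a TopCount after a 60-second delay, and percentage inhibition was calculated.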

Human opioid (ORL1) = biological target: T7, Human opioid (ORL1) (Homo sapiens, UniProt P41146); assay: Radioligand binding, human opioid ORL1 membranes, FlashPlate, [125I]-Nociceptin; conditions: compound at 10 μM; [125I]-Nociceptin
T7 construct: purchased Perkin Elmer Biosignal
How it was run: as §1

Human μ-opioid (MOP) = biological target: T8, Human μ-opioid (MOP) (Homo sapiens, UniProt P35372); assay: Radioligand binding, human μ-opioid (MOP) membranes, FlashPlate, [3H]-Naloxone; conditions: compound at 10 μM; [3H]-Naloxone
T8 construct: purchased Perkin Elmer Biosignal
How it was run: as §1

Human δ-opioid (DOP) = biological target: T9, Human δ-opioid (DOP) (Homo sapiens, UniProt P41143); assay: Radioligand binding, human δ-opioid (DOP) membranes, FlashPlate, [3H]-Bremazocine; conditions: compound at 10 μM; [3H]-Bremazocine
T9 construct: purchased Perkin Elmer Biosignal
How it was run: as §1

Human neurokinin (NK1) = biological target: T10, Human neurokinin (NK1) (Homo sapiens, UniProt P25103); assay: Radioligand binding, human neurokinin NK1 membranes, filtration, [125I]-Substance P; conditions: compound at 10 μM; [125I]-Substance P
T10 construct: purchased Perkin Elmer Biosignal
How it was run: (§2)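 Percent inhibition of radioligand binding measured on recombinant human membranes: NK1 with [125I]-Substance P, KOP with [3H]-Diprenorphine. Incubation 1 h at room temperature, then harvest onto 0.3% PEI-soaked filters, cold Tris-HCl pH 7.4 washes and scintillation counting; non-specific binding from reference ligand wells.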

Human κ-Opioid (KOP) = biological target: T11, Human κ-Opioid (KOP) (Homo sapiens, UniProt P41145); assay: Radioligand binding, human κ-opioid (KOP) membranes, filtration, [3H]-Diprenorphine; conditions: compound at 10 μM; [3H]-Diprenorphine
T11 construct: purchased Perkin Elmer Biosignal
How it was run: as §2

T7 sequence (P41146 whole entry): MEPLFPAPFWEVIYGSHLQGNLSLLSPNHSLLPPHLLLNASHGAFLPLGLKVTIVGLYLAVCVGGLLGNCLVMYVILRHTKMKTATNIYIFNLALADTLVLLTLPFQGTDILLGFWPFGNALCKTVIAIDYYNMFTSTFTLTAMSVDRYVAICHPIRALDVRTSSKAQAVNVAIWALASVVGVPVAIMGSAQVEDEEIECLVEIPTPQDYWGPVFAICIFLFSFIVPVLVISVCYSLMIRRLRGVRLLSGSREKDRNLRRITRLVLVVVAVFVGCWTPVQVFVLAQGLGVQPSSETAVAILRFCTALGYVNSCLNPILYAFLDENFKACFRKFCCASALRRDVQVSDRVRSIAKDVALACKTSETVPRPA
T8 sequence (P35372 whole entry): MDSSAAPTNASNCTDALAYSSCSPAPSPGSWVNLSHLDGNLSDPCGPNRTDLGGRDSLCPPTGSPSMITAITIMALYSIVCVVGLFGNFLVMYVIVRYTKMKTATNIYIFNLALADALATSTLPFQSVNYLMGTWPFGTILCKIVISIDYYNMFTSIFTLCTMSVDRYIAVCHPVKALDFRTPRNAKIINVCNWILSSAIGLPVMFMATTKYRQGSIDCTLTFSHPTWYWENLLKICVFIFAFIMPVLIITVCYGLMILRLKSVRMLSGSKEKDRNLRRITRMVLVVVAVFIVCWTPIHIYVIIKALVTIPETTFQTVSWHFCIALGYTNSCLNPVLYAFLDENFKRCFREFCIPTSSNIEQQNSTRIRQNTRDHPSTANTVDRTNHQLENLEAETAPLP
T9 sequence (P41143 whole entry): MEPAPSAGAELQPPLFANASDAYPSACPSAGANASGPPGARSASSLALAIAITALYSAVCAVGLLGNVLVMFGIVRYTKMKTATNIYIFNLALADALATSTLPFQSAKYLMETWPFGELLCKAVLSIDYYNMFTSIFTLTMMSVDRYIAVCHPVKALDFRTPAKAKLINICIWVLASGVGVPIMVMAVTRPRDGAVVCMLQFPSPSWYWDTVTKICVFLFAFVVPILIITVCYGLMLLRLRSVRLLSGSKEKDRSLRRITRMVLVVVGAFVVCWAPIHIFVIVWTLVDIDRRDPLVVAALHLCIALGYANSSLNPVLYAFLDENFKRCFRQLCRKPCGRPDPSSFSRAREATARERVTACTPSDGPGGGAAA
T5 sequence (P33032 whole entry): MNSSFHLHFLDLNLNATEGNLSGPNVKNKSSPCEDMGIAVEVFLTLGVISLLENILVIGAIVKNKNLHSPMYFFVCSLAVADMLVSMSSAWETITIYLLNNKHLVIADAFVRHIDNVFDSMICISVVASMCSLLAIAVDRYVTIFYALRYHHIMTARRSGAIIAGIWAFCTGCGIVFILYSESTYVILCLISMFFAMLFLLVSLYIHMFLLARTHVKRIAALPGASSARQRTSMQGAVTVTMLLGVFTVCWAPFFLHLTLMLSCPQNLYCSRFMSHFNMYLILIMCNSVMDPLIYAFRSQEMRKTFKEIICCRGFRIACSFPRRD
T1 sequence (P32245 whole entry): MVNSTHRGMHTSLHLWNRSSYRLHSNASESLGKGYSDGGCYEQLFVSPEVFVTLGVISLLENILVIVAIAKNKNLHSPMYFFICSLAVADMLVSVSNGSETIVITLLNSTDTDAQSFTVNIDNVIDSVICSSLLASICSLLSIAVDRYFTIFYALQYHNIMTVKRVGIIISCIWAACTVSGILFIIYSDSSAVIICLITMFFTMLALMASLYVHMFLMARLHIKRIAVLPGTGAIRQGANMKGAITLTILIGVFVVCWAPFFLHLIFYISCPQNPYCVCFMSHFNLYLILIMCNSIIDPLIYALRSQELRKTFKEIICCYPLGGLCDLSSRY
T10 sequence (P25103 whole entry): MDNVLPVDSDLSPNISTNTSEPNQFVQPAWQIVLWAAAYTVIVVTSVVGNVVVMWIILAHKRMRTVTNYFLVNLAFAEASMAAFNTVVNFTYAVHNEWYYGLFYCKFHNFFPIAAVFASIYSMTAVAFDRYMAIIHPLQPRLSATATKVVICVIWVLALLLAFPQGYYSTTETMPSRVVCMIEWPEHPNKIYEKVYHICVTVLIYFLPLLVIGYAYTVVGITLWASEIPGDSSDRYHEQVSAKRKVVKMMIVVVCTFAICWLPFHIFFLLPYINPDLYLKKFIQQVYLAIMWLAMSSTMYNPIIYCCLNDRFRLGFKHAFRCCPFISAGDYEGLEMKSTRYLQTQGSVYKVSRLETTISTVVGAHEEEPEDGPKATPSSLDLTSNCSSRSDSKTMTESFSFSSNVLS
T4 sequence (P41968 whole entry): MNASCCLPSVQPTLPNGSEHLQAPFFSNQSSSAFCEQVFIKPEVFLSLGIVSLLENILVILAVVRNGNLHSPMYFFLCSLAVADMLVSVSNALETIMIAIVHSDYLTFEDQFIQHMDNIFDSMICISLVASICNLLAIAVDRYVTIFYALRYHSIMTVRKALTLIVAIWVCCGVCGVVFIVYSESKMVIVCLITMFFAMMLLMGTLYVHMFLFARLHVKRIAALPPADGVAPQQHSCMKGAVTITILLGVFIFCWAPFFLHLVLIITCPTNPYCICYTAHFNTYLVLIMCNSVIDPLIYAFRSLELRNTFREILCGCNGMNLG
T3 sequence (Q99705 whole entry): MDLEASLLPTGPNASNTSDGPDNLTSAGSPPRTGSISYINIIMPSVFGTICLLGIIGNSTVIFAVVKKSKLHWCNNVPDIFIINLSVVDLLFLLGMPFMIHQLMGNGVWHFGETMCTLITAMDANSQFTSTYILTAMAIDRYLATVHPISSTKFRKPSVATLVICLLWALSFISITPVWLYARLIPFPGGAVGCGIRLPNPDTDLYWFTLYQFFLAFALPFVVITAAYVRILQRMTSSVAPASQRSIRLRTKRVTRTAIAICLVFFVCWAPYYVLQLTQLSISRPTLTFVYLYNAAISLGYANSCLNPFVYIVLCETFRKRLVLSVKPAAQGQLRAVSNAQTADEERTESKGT
T11 sequence (P41145 whole entry): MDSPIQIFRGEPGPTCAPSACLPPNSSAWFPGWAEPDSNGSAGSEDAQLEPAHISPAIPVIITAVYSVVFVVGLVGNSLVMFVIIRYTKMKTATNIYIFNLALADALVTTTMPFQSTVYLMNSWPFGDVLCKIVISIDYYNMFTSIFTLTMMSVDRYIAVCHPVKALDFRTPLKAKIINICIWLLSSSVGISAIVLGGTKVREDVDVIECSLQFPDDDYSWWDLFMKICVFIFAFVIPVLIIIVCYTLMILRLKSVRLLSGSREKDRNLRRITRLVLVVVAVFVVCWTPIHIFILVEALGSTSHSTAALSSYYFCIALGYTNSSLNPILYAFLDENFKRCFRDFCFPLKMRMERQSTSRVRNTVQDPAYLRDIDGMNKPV

Structure (SMILES): CSC1OC(COCc2ccc(-c3ccccc3)cc2)C(O)C(OCc2ccc3ccccc3c2)C1NC(=O)CCNC(=N)N (stereo not shown) [compound 314]
- A4: inhibition of radioligand binding, human melanocortin (MC4) (Human Melanocortin (MC4)): − (“−” indicates less than 50% inhibition at 10 μM)
- A9: inhibition of radioligand binding, human neuropeptide Y (NPY-Y1) [1]: − (“−” indicates less than 50% inhibition at 10 μM)
- A6: inhibition of radioligand binding, human melanin-concentrating hormone (MCH1) [2]: − (“−” indicates less than 50% inhibition at 10 μM)
- A3: inhibition of radioligand binding, human melanocortin (MC3) (Human Melanocortin (MC3)): − (“−” indicates less than 50% inhibition at 10 μM)
- A5: inhibition of radioligand binding, human melanocortin (MC5) (Human melanocortin (MC5)): − (“−” indicates less than 50% inhibition at 10 μM)
- A11: inhibition of radioligand binding, mouse urotensin (mUR2) (Mouse urotensin (mUR2)): − (“−” indicates less than 50% inhibition at 10 μM)
- A10: inhibition of radioligand binding, human opioid (ORL1) (Human opioid (ORL1)): − (“−” indicates less than 50% inhibition at 10 μM)
- A7: inhibition of radioligand binding, human μ-opioid (MOP) (Human μ-opioid (MOP)): − (“−” indicates less than 50% inhibition at 10 μM)
- A1: inhibition of radioligand binding, human δ-opioid (DOP) (Human δ-opioid (DOP)): − (“−” indicates less than 50% inhibition at 10 μM)
- A8: inhibition of radioligand binding, human neurokinin (NK1) (Human neurokinin (NK1)): + (“+” indicates greater than 50% inhibition at 10 μM)
- A2: inhibition of radioligand binding, human κ-opioid (KOP) (Human κ-Opioid (KOP)): − (“−” indicates less than 50% inhibition at 10 μM)

Structure (SMILES): CSC1OC(COCc2ccc(-c3ccccc3)cc2)C(O)C(OCc2ccc3ccccc3c2)C1NC(=O)CCCN (stereo not shown) [compound 315]
- A4: inhibition of radioligand binding, human melanocortin (MC4) (Human Melanocortin (MC4)): − (“−” indicates less than 50% inhibition at 10 μM)
- A9: inhibition of radioligand binding, human neuropeptide Y (NPY-Y1) [1]: − (“−” indicates less than 50% inhibition at 10 μM)
- A6: inhibition of radioligand binding, human melanin-concentrating hormone (MCH1) [2]: − (“−” indicates less than 50% inhibition at 10 μM)
- A3: inhibition of radioligand binding, human melanocortin (MC3) (Human Melanocortin (MC3)): − (“−” indicates less than 50% inhibition at 10 μM)
- A5: inhibition of radioligand binding, human melanocortin (MC5) (Human melanocortin (MC5)): − (“−” indicates less than 50% inhibition at 10 μM)
- A11: inhibition of radioligand binding, mouse urotensin (mUR2) (Mouse urotensin (mUR2)): − (“−” indicates less than 50% inhibition at 10 μM)
- A10: inhibition of radioligand binding, human opioid (ORL1) (Human opioid (ORL1)): − (“−” indicates less than 50% inhibition at 10 μM)
- A7: inhibition of radioligand binding, human μ-opioid (MOP) (Human μ-opioid (MOP)): − (“−” indicates less than 50% inhibition at 10 μM)
- A1: inhibition of radioligand binding, human δ-opioid (DOP) (Human δ-opioid (DOP)): − (“−” indicates less than 50% inhibition at 10 μM)
- A8: inhibition of radioligand binding, human neurokinin (NK1) (Human neurokinin (NK1)): + (“+” indicates greater than 50% inhibition at 10 μM)
- A2: inhibition of radioligand binding, human κ-opioid (KOP) (Human κ-Opioid (KOP)): − (“−” indicates less than 50% inhibition at 10 μM)

Structure (SMILES): CSC1OC(COCc2ccc3ccccc3c2)C(O)C(OCc2ccc3ccccc3c2)C1NC(=O)CN (stereo not shown) [compound 316]
- A4: inhibition of radioligand binding, human melanocortin (MC4) (Human Melanocortin (MC4)): + (“+” indicates greater than 50% inhibition at 10 μM)
- A9: inhibition of radioligand binding, human neuropeptide Y (NPY-Y1) [1]: − (“−” indicates less than 50% inhibition at 10 μM)
- A6: inhibition of radioligand binding, human melanin-concentrating hormone (MCH1) [2]: − (“−” indicates less than 50% inhibition at 10 μM)
- A3: inhibition of radioligand binding, human melanocortin (MC3) (Human Melanocortin (MC3)): − (“−” indicates less than 50% inhibition at 10 μM)
- A5: inhibition of radioligand binding, human melanocortin (MC5) (Human melanocortin (MC5)): − (“−” indicates less than 50% inhibition at 10 μM)
- A11: inhibition of radioligand binding, mouse urotensin (mUR2) (Mouse urotensin (mUR2)): − (“−” indicates less than 50% inhibition at 10 μM)
- A10: inhibition of radioligand binding, human opioid (ORL1) (Human opioid (ORL1)): − (“−” indicates less than 50% inhibition at 10 μM)
- A7: inhibition of radioligand binding, human μ-opioid (MOP) (Human μ-opioid (MOP)): − (“−” indicates less than 50% inhibition at 10 μM)
- A1: inhibition of radioligand binding, human δ-opioid (DOP) (Human δ-opioid (DOP)): − (“−” indicates less than 50% inhibition at 10 μM)
- A8: inhibition of radioligand binding, human neurokinin (NK1) (Human neurokinin (NK1)): + (“+” indicates greater than 50% inhibition at 10 μM)
- A2: inhibition of radioligand binding, human κ-opioid (KOP) (Human κ-Opioid (KOP)): − (“−” indicates less than 50% inhibition at 10 μM)

Structure (SMILES): CSC1OC(COCc2ccc3ccccc3c2)C(O)C(OCc2ccc3ccccc3c2)C1NC(=O)CNC(=N)N (stereo not shown) [compound 317]
- A4: inhibition of radioligand binding, human melanocortin (MC4) (Human Melanocortin (MC4)): − (“−” indicates less than 50% inhibition at 10 μM)
- A9: inhibition of radioligand binding, human neuropeptide Y (NPY-Y1) [1]: − (“−” indicates less than 50% inhibition at 10 μM)
- A6: inhibition of radioligand binding, human melanin-concentrating hormone (MCH1) [2]: − (“−” indicates less than 50% inhibition at 10 μM)
- A3: inhibition of radioligand binding, human melanocortin (MC3) (Human Melanocortin (MC3)): − (“−” indicates less than 50% inhibition at 10 μM)
- A5: inhibition of radioligand binding, human melanocortin (MC5) (Human melanocortin (MC5)): + (“+” indicates greater than 50% inhibition at 10 μM)
- A11: inhibition of radioligand binding, mouse urotensin (mUR2) (Mouse urotensin (mUR2)): − (“−” indicates less than 50% inhibition at 10 μM)
- A10: inhibition of radioligand binding, human opioid (ORL1) (Human opioid (ORL1)): − (“−” indicates less than 50% inhibition at 10 μM)
- A7: inhibition of radioligand binding, human μ-opioid (MOP) (Human μ-opioid (MOP)): − (“−” indicates less than 50% inhibition at 10 μM)
- A1: inhibition of radioligand binding, human δ-opioid (DOP) (Human δ-opioid (DOP)): − (“−” indicates less than 50% inhibition at 10 μM)
- A8: inhibition of radioligand binding, human neurokinin (NK1) (Human neurokinin (NK1)): + (“+” indicates greater than 50% inhibition at 10 μM)
- A2: inhibition of radioligand binding, human κ-opioid (KOP) (Human κ-Opioid (KOP)): − (“−” indicates less than 50% inhibition at 10 μM)

Structure (SMILES): CSC1OC(COCc2ccc3ccccc3c2)C(O)C(OCc2ccc3ccccc3c2)C1NC(=O)CCN (stereo not shown) [compound 318]
- A4: inhibition of radioligand binding, human melanocortin (MC4) (Human Melanocortin (MC4)): − (“−” indicates less than 50% inhibition at 10 μM)
- A9: inhibition of radioligand binding, human neuropeptide Y (NPY-Y1) [1]: − (“−” indicates less than 50% inhibition at 10 μM)
- A6: inhibition of radioligand binding, human melanin-concentrating hormone (MCH1) [2]: − (“−” indicates less than 50% inhibition at 10 μM)
- A3: inhibition of radioligand binding, human melanocortin (MC3) (Human Melanocortin (MC3)): − (“−” indicates less than 50% inhibition at 10 μM)
- A5: inhibition of radioligand binding, human melanocortin (MC5) (Human melanocortin (MC5)): + (“+” indicates greater than 50% inhibition at 10 μM)
- A11: inhibition of radioligand binding, mouse urotensin (mUR2) (Mouse urotensin (mUR2)): − (“−” indicates less than 50% inhibition at 10 μM)
- A10: inhibition of radioligand binding, human opioid (ORL1) (Human opioid (ORL1)): − (“−” indicates less than 50% inhibition at 10 μM)
- A7: inhibition of radioligand binding, human μ-opioid (MOP) (Human μ-opioid (MOP)): − (“−” indicates less than 50% inhibition at 10 μM)
- A1: inhibition of radioligand binding, human δ-opioid (DOP) (Human δ-opioid (DOP)): − (“−” indicates less than 50% inhibition at 10 μM)
- A8: inhibition of radioligand binding, human neurokinin (NK1) (Human neurokinin (NK1)): + (“+” indicates greater than 50% inhibition at 10 μM)
- A2: inhibition of radioligand binding, human κ-opioid (KOP) (Human κ-Opioid (KOP)): − (“−” indicates less than 50% inhibition at 10 μM)
